Data from patent US20050112573A1, “Method of detecting toxic substance” (priority 2001, published 2005).

Test system: yeast genes (level of expressed mRNA)
Assay: DNA chip analysis of expressed mRNA of yeast genes after 2 h culture with a toxic chemical substance
Type: cell-based, Saccharomyces cerevisiae S288C
Experimental: Yeast (Saccharomyces cerevtisiae S288C (α SUC2mal mel gap2 CUP1)) were cultured at 25° C. on YPD medium (yeast extract 1%, polypepton 2%, glucose 2%). One of toxic chemical substances was added to the cell at logarithmic growth phase, and the cell was further cultured for two hours. Cell was cultured without any chemical substance in the same condition, and was used as control. Concentrations of the chemical substances were defined to inhibit the growth of the yeast but not lead to death.
After the completion of cultivation, the culture was centrifuged to collect the cells. To the cells, sodium acetate buffer (50 mM sodium acetate, 10 mM EDTA, 1% SDS) was added, and the mixture was shaken at 65° C. for five minutes, followed by returning to room temperature, and obtaining the supernatant, which procedure was repeated two times. To the supernatant, ½ amount of a solution of phenol/chloroform was added, and the mixture was centrifuged to give a supernatant, which was added with an equal amount of chloroform, and the mixture was centrifuged to give a supernatant. To the supernatant, an equal amount of isopropanol containing 0.3 M sodium acetate was added, and the mixture was allowed to stand at room temperature for 30 minutes, after which the mixture was centrifuged to give a sediment of the whole RNAs. Seventy % ethanol was added to the sediment, and the mixture was again centrifuged to give a sediment, which was then dried and dissolved in water. mRNA was isolated from the whole RNAs as followings. In view of the fact that a poly A chain is attached to the 3′ terminus of mRNA, a polynucleotide having a poly T structure which was immobilized on the surface of latex beads was used to trap the mRNA, and then the mRNA was washed and eluted with spine column (Oligotex-dT30<Super>mRNA Purification Kit, Takara). Reverse transcription of the mRNA was conducted with a reverse transcriptase (Super Script II Reverse Transcriptase; catalogue No. 18064-014, GibcoBRL) using fluorescence-labeled nucleotides to give cDNAs that were introduced with Cy3-dUTP or Cy5-dUTP during the reverse transcription.
The labeled cDNAs were dissolved in TE buffer (10 mM Tris-HCl/1 mM EDTA, pH8.0), and the solution was dropped on the DNA chip containing the whole genes of yeast (DNA Chip Research Inc. Japan) so that the cDNAs were hybridized on the DNA chip at 65° C. for over 12 hours. The fluoresces intensity of the DNA chip was read with a scanner, and the ratio relative to the fluorescence intensity resulting from the absence of chemical substance was estimated as the following, which is shown in Tables 1 to 9: [formula]
In the Tables, “Intensity” indicated in the rightmost column is a value of the level of expressed mRNA of each gene in control cells as divided by the average level of the expressions of the whole genes.

For `C[S+](C)[O-]` [(15), dimethylsulfoxide], the “level of expressed mRNA in the presence of chemical substance/in its absence” value (from here on “level … of chemical substance/in its absence”) (gene YAL012W) was 3.1, the “The level of expressed mRNA in the presence of chemical substance/absence: YAL014C” value (gene YAL014C) was 2.3 and the “The level of expressed mRNA in the presence of chemical substance/absence: YAL017W” value (gene YAL017W) was 1.0. The “The level of expressed mRNA in the presence of chemical substance/absence: YAL018C” value (gene YAL018C) was 6.9, the “level … of chemical substance/in its absence” value (gene YAL038W) was 3.1 and the “level … of chemical substance/in its absence” value (gene YAL044C) was 0.7. The “The level of expressed mRNA in the presence of chemical substance/absence: YAL049C” value (gene YAL049C) was 1.4, the “level … of chemical substance/in its absence” value (gene YAL054C) was 0.9 and the “The level of expressed mRNA in the presence of chemical substance/absence: YAR047C” value (gene YAR047C) was 0.5. For the same molecule, the “The level of expressed mRNA in the presence of chemical substance/absence: YAR064W” value (gene YAR064W) was 1.9, the “level … of chemical substance/in its absence” value (gene YAR071W) was 1.1 and the “level … of chemical substance/in its absence” value (gene YBL001C) was 1.0. The “The level of expressed mRNA in the presence of chemical substance/absence: YBL044W” value (gene YBL044W) was 0.7, the “The level of expressed mRNA in the presence of chemical substance/absence: YBL100C” value (gene YBL100C) was 1.0 and the “The level of expressed mRNA in the presence of chemical substance/absence: YBR012C” value (gene YBR012C) was 1.1. For the same molecule, the “The level of expressed mRNA in the presence of chemical substance/absence: YBR013C” value (gene YBR013C) was 1.1, the “level … of chemical substance/in its absence” value (gene YBR014C) was 1.2 and the “level … of chemical substance/in its absence” value (gene YBR023C) was 2.8. The “level … of chemical substance/in its absence” value (gene YBR029C) was 3.5, the “level … of chemical substance/in its absence” value (gene YBR035C) was 0.7 and the “level … of chemical substance/in its absence” value (gene YBR050C) was 0.5. The “The level of expressed mRNA in the presence of chemical substance/absence: YBR051W” value (gene YBR051W) was 0.8, the “The level of expressed mRNA in the presence of chemical substance/absence: YBR063C” value (gene YBR063C) was 1.6 and the “The level of expressed mRNA in the presence of chemical substance/absence: YBR066C” value (gene YBR066C) was 0.4. For the same molecule, the “level … of chemical substance/in its absence” value (gene YBR068C) was 1.6, the “level … of chemical substance/in its absence” value (gene YBR111C) was 0.7 and the “The level of expressed mRNA in the presence of chemical substance/absence: YBR124W” value (gene YBR124W) was 1.0. For the same molecule, the “The level of expressed mRNA in the presence of chemical substance/absence: YBR129C” value (gene YBR129C) was 0.9, the “level … of chemical substance/in its absence” value (gene YBR145W) was 1.2 and the “The level of expressed mRNA in the presence of chemical substance/absence: YBR162C” value (gene YBR162C) was 1.9. For the same molecule, the “level … of chemical substance/in its absence” value (gene YBR183W) was 1.1, the “level … of chemical substance/in its absence” value (gene YBR222C) was 4.3 and the “The level of expressed mRNA in the presence of chemical substance/absence: YBR255W” value (gene YBR255W) was 1.0. For the same molecule, the “The level of expressed mRNA in the presence of chemical substance/absence: YBR281C” value (gene YBR281C) was 1.0, the “The level of expressed mRNA in the presence of chemical substance/absence: YBR287W” value (gene YBR287W) was 1.3 and the “level … of chemical substance/in its absence” value (gene YBR299W) was 0.6. The “level … of chemical substance/in its absence” value (gene YCL009C) was 6.5, the “The level of expressed mRNA in the presence of chemical substance/absence: YCL044C” value (gene YCL044C) was 4.4 and the “The level of expressed mRNA in the presence of chemical substance/absence: YCL056C” value (gene YCL056C) was 1.7. The “level … of chemical substance/in its absence” value (gene YCL064C) was 21.4, the “The level of expressed mRNA in the presence of chemical substance/absence: YCR007C” value (gene YCR007C) was 0.8 and the “level … of chemical substance/in its absence” value (gene YCR037C) was 1.0. For the same molecule, the “level … of chemical substance/in its absence” value (gene YCR048W) was 3.1, the “level … of chemical substance/in its absence” value (gene YCR098C) was 11.0 and the “level … of chemical substance/in its absence” value (gene YDL022W) was 0.9. For the same molecule, the “The level of expressed mRNA in the presence of chemical substance/absence: YDL046W” value (gene YDL046W) was 2.3, the “The level of expressed mRNA in the presence of chemical substance/absence: YDL089W” value (gene YDL089W) was 1.6 and the “The level of expressed mRNA in the presence of chemical substance/absence: YDL173W” value (gene YDL173W) was 1.1. For the same molecule, the “The level of expressed mRNA in the presence of chemical substance/absence: YDL193W” value (gene YDL193W) was 1.2, the “The level of expressed mRNA in the presence of chemical substance/absence: YDL233W” value (gene YDL233W) was 1.3 and the “level … of chemical substance/in its absence” value (gene YDR009W) was 3.2. The “level … of chemical substance/in its absence” value (gene YDR019C) was 1.8, the “The level of expressed mRNA in the presence of chemical substance/absence: YDR071C” value (gene YDR071C) was 0.9 and the “The level of expressed mRNA in the presence of chemical substance/absence: YDR078C” value (gene YDR078C) was 0.5. The “The level of expressed mRNA in the presence of chemical substance/absence: YDR090C” value (gene YDR090C) was 1.1, the “The level of expressed mRNA in the presence of chemical substance/absence: YDR109C” value (gene YDR109C) was 1.7 and the “The level of expressed mRNA in the presence of chemical substance/absence: YDR128W” value (gene YDR128W) was 1.4.
